Where two headings read alike, the source gives them in different places.

The results in this text go back to patent US20110269812A1, “NOVEL BENZYLIDENE-INDOLINONE AND THEIR MEDICAL AND DIAGNOSTIC USES” (Agency for Science, Technology and Research, priority 2008, published 2011).

In one experiment the test system is HCT116 cells. As to the kind of experiment: Cell cycle of synchronized HCT116 cells by flow cytometry (FACS). The class given is cell-based, human. The note with it: for Proportion of cells in G1 / Proportion of cells in G2/M / Proportion of cells in S / Proportion of cells in Sub-G1: 24 h; for type of cell cycle arrest caused: HCT116 cells, ≈1.5 × IC50, 24 h. Here is the method: HCT116 cells were grown to confluence and maintained in this state for at least 5 days without change of media. The serum starved cells were then trypsinized and subcultured at densities of 5×10^5 cells/well in six-well plates. Growth media contained 10% fetal calf serum. The test compound was added either immediately to cells synchronized at G1 phase, or 24 h later when cells were synchronized at G2 phase. The cells were incubated with test compound for 24 h from the time of addition. After this time, the cells were harvested, trypsinized and fixed in 70% ice-cold ethanol for a minimum of 24 h. After centrifugation, the supernatant was discarded and the pellet was treated with RNase A (200 μg/ml) for 30 min at room temperature, followed by cell staining using propidium iodide at a final concentration of 20 μg/ml. The stained cells were then analyzed for cell cycle distribution in the sub-G1, G1, S and G2/M phases on a Dako Cytomation Cyan LX (Dako Colorado, Fort Collins, Colo., USA) equipped with an argon solid state laser (488 nm) using the Summit (version 4.3) software. Compounds were tested at a concentration of ≈1.5×IC50, with IC50 determined by the MTT assay on HCT116 cells.
To have a better understanding of the mechanisms underlying the antiproliferative activities of the compounds listed in Table 5, their effects on the cell cycle was investigated by fluorescence-activated cell sorter (FACS) analysis using flow cytometry. The experiments were designed to examine the effects of the test compounds on synchronized cell populations at the GI or G2/M phase. G1 synchronized cells were obtained by growing cells to confluence for up to 5 days and then stimulating their re-entry into the cell cycle by sub-culturing at lower densities. After 24 hours of growth, these cells would be aligned at the G2/M phase.
Cells aligned at the G2/M phase were similarly treated.

The target of a further experiment is T1, EGFR (Homo sapiens, UniProt P00533).
T1 construct: Cells treated similarly were immunoprecipitated with anti-EGFR, anti-EphA2 and anti-Tyro3; endogenous in cells; host or cells: HuH7
T1 sequence (P00533 25-1210): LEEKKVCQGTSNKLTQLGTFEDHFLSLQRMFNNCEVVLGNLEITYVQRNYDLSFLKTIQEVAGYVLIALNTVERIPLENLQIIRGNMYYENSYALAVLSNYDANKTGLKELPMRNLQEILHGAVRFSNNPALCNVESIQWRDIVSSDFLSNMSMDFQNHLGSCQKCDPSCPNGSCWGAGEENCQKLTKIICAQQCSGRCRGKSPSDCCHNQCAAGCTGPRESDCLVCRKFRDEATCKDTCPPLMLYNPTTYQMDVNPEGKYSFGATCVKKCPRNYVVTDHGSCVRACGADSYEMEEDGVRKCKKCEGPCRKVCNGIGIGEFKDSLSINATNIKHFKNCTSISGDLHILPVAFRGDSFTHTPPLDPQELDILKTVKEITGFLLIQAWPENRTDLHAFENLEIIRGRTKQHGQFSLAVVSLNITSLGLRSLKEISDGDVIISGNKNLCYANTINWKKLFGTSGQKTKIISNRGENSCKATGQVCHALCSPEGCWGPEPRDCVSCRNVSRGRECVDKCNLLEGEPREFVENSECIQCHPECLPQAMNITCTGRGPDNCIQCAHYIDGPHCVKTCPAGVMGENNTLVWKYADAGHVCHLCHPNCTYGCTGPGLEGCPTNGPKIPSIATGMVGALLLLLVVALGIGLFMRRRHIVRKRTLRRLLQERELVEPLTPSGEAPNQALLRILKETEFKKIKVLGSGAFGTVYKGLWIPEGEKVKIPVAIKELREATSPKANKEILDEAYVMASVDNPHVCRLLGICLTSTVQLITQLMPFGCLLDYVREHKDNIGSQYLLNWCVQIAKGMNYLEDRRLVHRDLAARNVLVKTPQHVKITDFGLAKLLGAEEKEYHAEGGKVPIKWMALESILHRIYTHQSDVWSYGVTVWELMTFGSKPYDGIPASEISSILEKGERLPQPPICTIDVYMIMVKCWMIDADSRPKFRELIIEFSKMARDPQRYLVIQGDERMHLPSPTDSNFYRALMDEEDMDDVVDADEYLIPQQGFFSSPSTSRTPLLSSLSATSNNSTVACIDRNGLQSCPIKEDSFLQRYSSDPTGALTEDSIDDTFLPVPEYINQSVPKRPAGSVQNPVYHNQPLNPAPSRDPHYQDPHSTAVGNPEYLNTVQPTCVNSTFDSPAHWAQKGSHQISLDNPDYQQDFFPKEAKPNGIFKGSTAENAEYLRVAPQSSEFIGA
It counts as cell-based. The note with it: 24 h, untreated 0.15. On the procedure: (§1) Kinase phosphorylation changes were determined with human phospho-RTK array.
(§2) Cells harvesting, hybridization with RTK array and incubation with anti-phosphotyrosine were performed according to manufacturer's instruction. Imaging and quantification of the spots intensities was with Fujifilm LAS-3000 (Tokyo, Japan). Average signal of the duplicate spots for each RTK was determined.

The target of a further experiment is T2, Insulin R (Homo sapiens, UniProt P06213).
T2 construct: endogenous in cells; host or cells: HuH7
T2 sequence (P06213 28-1382): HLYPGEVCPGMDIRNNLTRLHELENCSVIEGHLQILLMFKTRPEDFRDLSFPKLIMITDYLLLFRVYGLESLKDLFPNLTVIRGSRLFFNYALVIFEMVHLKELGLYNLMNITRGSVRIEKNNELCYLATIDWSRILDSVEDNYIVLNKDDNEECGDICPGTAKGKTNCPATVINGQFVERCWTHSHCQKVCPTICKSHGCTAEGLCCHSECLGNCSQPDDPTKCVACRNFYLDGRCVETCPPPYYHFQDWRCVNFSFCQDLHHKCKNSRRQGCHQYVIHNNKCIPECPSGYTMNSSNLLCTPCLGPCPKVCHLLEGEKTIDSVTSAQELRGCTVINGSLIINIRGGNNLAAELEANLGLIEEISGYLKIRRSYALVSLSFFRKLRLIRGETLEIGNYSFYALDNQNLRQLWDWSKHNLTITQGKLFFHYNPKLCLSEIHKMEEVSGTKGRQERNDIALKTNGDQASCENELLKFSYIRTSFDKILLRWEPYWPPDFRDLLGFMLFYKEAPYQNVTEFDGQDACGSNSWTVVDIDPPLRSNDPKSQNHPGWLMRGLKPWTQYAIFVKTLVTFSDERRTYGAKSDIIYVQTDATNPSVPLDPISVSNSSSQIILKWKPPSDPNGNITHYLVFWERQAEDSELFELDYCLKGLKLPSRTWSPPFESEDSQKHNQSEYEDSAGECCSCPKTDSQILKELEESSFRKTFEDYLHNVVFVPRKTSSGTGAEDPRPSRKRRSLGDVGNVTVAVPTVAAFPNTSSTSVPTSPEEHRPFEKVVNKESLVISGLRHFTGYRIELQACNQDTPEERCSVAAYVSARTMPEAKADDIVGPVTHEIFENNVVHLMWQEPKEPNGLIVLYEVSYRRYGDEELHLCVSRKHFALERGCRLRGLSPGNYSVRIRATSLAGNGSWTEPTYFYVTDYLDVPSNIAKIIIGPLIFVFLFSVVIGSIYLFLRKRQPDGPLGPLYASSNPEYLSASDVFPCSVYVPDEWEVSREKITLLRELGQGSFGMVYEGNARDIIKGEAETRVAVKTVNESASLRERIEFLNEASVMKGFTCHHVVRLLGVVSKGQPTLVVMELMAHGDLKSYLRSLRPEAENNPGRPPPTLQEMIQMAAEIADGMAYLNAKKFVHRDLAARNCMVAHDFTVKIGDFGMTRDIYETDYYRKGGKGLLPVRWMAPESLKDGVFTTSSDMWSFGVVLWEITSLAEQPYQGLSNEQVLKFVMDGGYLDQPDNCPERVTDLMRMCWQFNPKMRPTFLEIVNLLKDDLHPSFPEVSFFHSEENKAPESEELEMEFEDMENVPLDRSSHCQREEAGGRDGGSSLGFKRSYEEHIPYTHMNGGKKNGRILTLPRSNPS
As to the kind of experiment: Human phospho-RTK array, HuH7: Insulin R. The class given is cell-based. The note with it: 24 h, untreated 0.74. Here is the method: as §1, §2

The next experiment has as its target T3, Tyro3 (Homo sapiens, UniProt Q06418).
T3 construct: we examined the constitutively phosphorylated IGF-1R, EphA2 and Tyro3; endogenous in cells; host or cells: HuH7
T3 sequence (Q06418 41-890): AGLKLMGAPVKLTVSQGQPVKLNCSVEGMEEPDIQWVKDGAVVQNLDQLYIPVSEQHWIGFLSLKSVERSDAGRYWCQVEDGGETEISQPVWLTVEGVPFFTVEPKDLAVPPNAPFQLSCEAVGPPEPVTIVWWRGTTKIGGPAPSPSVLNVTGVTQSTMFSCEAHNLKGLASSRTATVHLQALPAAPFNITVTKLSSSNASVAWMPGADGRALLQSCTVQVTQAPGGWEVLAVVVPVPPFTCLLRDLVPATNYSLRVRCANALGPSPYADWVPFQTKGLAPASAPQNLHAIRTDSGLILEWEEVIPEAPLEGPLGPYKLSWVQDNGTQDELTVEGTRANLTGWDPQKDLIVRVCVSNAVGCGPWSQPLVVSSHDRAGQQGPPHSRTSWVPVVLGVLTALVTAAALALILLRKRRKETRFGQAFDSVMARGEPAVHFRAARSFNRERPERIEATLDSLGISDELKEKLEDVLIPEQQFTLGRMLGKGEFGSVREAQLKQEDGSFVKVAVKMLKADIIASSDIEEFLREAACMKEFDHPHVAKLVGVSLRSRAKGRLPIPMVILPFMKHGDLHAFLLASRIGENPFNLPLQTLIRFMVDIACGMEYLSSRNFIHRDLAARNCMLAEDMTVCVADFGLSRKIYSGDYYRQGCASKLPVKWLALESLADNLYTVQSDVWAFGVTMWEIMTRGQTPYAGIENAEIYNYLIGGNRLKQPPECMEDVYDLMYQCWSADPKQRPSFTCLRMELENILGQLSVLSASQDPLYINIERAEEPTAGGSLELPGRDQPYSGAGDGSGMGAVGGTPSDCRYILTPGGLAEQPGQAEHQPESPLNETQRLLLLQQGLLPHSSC
As to the kind of experiment: Immunoprecipitation / anti-phosphotyrosine blot of Tyro3 in HuH7. It counts as cell-based. To be noted: HuH7, 24 h; Compound 47 1, 5 or 10 μM, sunitinib 10 μM.

In a further experiment the target is T4, Ron (Homo sapiens, UniProt Q04912).
T4 construct: endogenous in cells; host or cells: HuH7
T4 sequence (Q04912 25-1400): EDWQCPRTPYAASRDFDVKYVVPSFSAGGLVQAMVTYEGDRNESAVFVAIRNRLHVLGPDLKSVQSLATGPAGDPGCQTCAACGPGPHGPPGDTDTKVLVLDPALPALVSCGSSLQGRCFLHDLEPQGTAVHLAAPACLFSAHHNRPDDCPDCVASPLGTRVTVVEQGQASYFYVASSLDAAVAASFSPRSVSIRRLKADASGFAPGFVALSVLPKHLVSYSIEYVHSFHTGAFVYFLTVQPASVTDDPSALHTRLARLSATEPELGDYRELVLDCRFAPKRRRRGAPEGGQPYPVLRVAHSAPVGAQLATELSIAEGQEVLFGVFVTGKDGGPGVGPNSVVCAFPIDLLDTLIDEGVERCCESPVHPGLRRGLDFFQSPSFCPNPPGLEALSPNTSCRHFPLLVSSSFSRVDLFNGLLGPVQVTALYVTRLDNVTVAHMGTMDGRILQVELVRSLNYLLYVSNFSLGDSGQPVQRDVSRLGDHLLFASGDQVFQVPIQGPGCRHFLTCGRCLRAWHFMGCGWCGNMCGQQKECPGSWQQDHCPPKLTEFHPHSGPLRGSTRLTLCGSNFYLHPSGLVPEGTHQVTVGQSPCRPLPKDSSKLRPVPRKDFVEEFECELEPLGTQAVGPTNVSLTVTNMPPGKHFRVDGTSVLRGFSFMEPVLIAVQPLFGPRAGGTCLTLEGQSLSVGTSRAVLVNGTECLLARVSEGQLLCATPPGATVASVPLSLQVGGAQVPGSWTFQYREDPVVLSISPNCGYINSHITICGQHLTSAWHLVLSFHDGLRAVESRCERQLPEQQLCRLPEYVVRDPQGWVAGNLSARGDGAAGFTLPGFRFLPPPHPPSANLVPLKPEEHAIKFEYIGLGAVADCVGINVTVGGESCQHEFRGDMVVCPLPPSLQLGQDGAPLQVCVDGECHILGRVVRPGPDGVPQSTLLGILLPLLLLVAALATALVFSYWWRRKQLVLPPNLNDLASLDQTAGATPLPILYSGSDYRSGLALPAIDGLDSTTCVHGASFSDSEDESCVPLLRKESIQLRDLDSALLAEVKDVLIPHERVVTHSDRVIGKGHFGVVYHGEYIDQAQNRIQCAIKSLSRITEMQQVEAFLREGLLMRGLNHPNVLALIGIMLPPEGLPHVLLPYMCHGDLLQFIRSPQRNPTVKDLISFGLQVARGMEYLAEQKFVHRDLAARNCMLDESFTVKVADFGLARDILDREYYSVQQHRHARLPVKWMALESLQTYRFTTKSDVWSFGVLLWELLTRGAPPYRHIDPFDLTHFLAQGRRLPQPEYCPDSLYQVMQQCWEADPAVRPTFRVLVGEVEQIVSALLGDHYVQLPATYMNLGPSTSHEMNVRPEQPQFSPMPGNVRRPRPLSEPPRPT
Nature of the experiment: Human phospho-RTK array, HuH7: Ron. The class given is cell-based. To be noted: 24 h, untreated 0.04. On the procedure: as §1, §2

The target in the next experiment is T5, IGF-1R (Homo sapiens, UniProt P08069).
T5 construct: we examined the constitutively phosphorylated IGF-1R, EphA2 and Tyro3; endogenous in cells; host or cells: HuH7
As to the kind of experiment: Immunoblot of phospho-IGF-1R in HuH7. The class given is cell-based. To be noted: HuH7, 24 h; Compound 47 1, 5 or 10 μM, sunitinib 10 μM.

Another experiment concerns Hs817T. As to the kind of experiment: Cell Titer-Glo viability, Hs817T. The class given is cell-based, human. To be noted: 5 μM. On the procedure: The efficacy of compound 47 against HCC proliferation was tested on a wider panel of HCC cell lines: Hep3B ([…]), Hs817T (▪), PLC/PRF/5 (▴) and SK-Hep 1 (▾), as determined by Cell Titer-Glo assay.
Cells were plated at 5000-7000 cells/per well and incubated for 24 h before treatment. […] Cell Titer-Glo (Promega, Madison, Wis.) assay was performed according to manufacturer's instruction with luminescence detected on SpectraMax M5 (Molecular Devices, Sunnyvale, Calif.). Data was expressed as percentage of viability vs. vehicle-treated controls.
Accordingly, Compound 47 was screened against a larger panel of 4 additional HCC cell lines.

Setting [1] is: HCT 116 cells released from G2 Block, 2.5 μM.
Setting [2] is: HCT 116 cells released from G1 Block, 15 μM.
The mark [3] stands for this setting: HCT 116 cells released from G2 Block, 15 μM.
[4] abbreviates: HCT 116 cells released from G1 Block, 5 μM.
Where [5] appears, read: HCT 116 cells released from G2 Block, 5 μM.

As for `COc1cccc(/C=C2/C(=O)Nc3cc(OC)ccc32)c1` [Compound 42, (E)-6-Methoxy-3-(3-methoxybenzylidene)indolin-2-one], in the experiment with HCT116 cells (setting [1]), the “Proportion of cells in G1” value worked out at 26.01%, the “Proportion of cells in G2/M” value is given as 43.57%, the “Proportion of cells in S” value is reported as 15.36% and the “Proportion of cells in Sub-G1” value is recorded as 30.54%. The “type of cell cycle arrest caused” value in the experiment on HCT116 cells is “G2 arrest”.

Regarding `COc1ccc2c(c1)NC(=O)/C2=C/c1ccc(OC)c(O)c1` [Compound 45, (E)-3-(3-Hydroxy-4-methoxybenzylidene)-6-methoxyindolin-2-one], in the experiment on HCT116 cells (setting [2]), the “Proportion of cells in G1” value is 17.49%, the “Proportion of cells in G2/M” value is given as 56.49%, the “Proportion of cells in S” value worked out at 21.13% and the “Proportion of cells in Sub-G1” value is 5.26%. Besides, in the experiment on HCT116 cells (setting [3]), the “Proportion of cells in G1” value was 26.01%, the “Proportion of cells in G2/M” value is listed as 43.57%, the “Proportion of cells in S” value is 15.36% and the “Proportion of cells in Sub-G1” value turned out to be 15.54%. Further, the “type of cell cycle arrest caused” value in the experiment with HCT116 cells is recorded as “G2 arrest”.

Turning to `O=C1Nc2cc(F)ccc2/C1=C\c1cccc(C(F)(F)F)c1` [Compound 46, (E)-6-Fluoro-3-(3-(trifluoromethyl)benzylidene)indolin-2-one], in the experiment on HCT116 cells (setting [2]), the “Proportion of cells in G1” value was found to be 64.93%, the “Proportion of cells in G2/M” value came out at 14.58%, the “Proportion of cells in S” value stood at 8.04% and the “Proportion of cells in Sub-G1” value was 12.68%. Further, in the experiment with HCT116 cells (setting [3]), the “Proportion of cells in G1” value turned out to be 64.15%, the “Proportion of cells in G2/M” value turned out to be 25.00%, the “Proportion of cells in S” value is given as 8.82% and the “Proportion of cells in Sub-G1” value came to 2.49%. The “type of cell cycle arrest caused” value in the experiment on HCT116 cells was “G1 arrest”.

Take `O=C1Nc2cc(Cl)ccc2/C1=C\c1cccc(C(F)(F)F)c1` [Compound 47, (E)-6-Chloro-3-(3-(trifluoromethyl)benzylidene)indolin-2-one]: the “EGFR Phosphorylation” value at EGFR (serum starved HuH7, 1 μM) stood at 0.19 Arbitrary units; at EGFR (serum starved HuH7, 5 μM), 0.44 Arbitrary units; on EGFR (serum starved HuH7, 10 μM), 0.53 Arbitrary units. The “Insulin R Phosphorylation” value was determined as 0.75 Arbitrary units at Insulin R (serum starved HuH7, 1 μM); 0.4 Arbitrary units on Insulin R (serum starved HuH7, 5 μM); 0.38 Arbitrary units on Insulin R (serum starved HuH7, 10 μM). Further, the “Tyro3 phosphorylation by immunoblot” value on Tyro3 is “inhibited even at the lowest concentration used (1 μM)”. Further, the “Ron Phosphorylation” value on Ron (serum starved HuH7, 1 μM) came to 0.06 Arbitrary units; at Ron (serum starved HuH7, 5 μM), 0.05 Arbitrary units; at Ron (serum starved HuH7, 10 μM), 0.03 Arbitrary units. Besides, the “Proportion of cells in G1” value was determined as 65.55% in the experiment on HCT116 cells (setting [2]) and 53.47% in the experiment on HCT116 cells (setting [3]). For the same compound, the results for the “Proportion of cells in G2/M” value with HCT116 cells (setting [2]) and in the experiment on HCT116 cells (setting [3]) were 15.13% and 28.39%, respectively. The “Proportion of cells in S” value in the experiment on HCT116 cells (setting [2]) turned out to be 7.10%; with HCT116 cells (setting [3]), 8.05%. Further, the entries for the “Proportion of cells in Sub-G1” value in the experiment with HCT116 cells (setting [2]) and in the experiment on HCT116 cells (setting [3]) were 12.39% and 10.62%, respectively. In addition, the “type of cell cycle arrest caused” value in the experiment with HCT116 cells was “G1 arrest”. Also, on IGF-1R, the “IGF-1R phosphorylation (Y980 and Y1135/1136) by immunoblot” value is “proportional reduction”. Moreover, in the experiment on Hs817T, the “viability Hs817T” value is given as “undetectable viability”.

Turning to `COc1ccc2c(c1)NC(=O)/C2=C/c1cccc(C(F)(F)F)c1` [Compound 48, (E)-6-Methoxy-3-(3-(trifluoromethyl)benzylidene)indolin-2-one], in the experiment with HCT116 cells (setting [4]), the “Proportion of cells in G1” value is on record as 17.50%, the “Proportion of cells in G2/M” value was 59.16%, the “Proportion of cells in S” value was found to be 19.12% and the “Proportion of cells in Sub-G1” value turned out to be 4.39%. For the same compound, in the experiment on HCT116 cells (setting [5]), the “Proportion of cells in G1” value was 30.55%, the “Proportion of cells in G2/M” value came out at 31.58%, the “Proportion of cells in S” value is 17.96% and the “Proportion of cells in Sub-G1” value amounted to 20.69%. In addition, the “type of cell cycle arrest caused” value in the experiment on HCT116 cells is recorded as “G2 arrest”.
